# What was measured:
# Homo sapiens = assay: Antiinflammatory activity in psoriasis patient assessed as incident of 75% reduction in psoriasis area and severity index score at 40 mg, po dosed daily during phase 2 study for 28 weeks; type: functional; parameters: scale not given: the % may be the effect or the level left
# [1] = biological target: Sphingosine 1-phosphate receptor 1 (Homo sapiens, UniProt P21453); assay: Inhibition of S1PR1 (unknown origin) expressed in CHOK1 cells after 90 mins by beta-arresting recuitment assay; type: functional, cell-based
# Sphingosine 1-phosphate receptor 1, sequence (P21453 whole entry): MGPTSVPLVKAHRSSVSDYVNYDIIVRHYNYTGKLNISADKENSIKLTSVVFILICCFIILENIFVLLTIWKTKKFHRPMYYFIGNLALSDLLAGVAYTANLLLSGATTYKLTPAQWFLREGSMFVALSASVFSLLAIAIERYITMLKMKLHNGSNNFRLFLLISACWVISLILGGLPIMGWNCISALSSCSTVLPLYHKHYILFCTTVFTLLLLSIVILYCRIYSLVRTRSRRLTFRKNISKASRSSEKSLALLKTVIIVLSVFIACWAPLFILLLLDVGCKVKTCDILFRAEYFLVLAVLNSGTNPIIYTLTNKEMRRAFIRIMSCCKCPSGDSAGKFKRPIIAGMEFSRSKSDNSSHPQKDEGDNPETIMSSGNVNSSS
# [2] = Drug level in human plasma treated with (5-methyl-2-oxo-1,3-dioxol-4-yl)methyl 4-((3-(2-hydroxyphenyl)-4-oxo-2-(propylimino)thiazolidin-5-ylidene)methyl)benzoate at 37 degC; type: ADME, cell-free
# [3] = Drug metabolism in human plasma assessed as formation of 4-((3(2-hydroxyphenyl)-4-oxo-2-(propylimino)thiazolidin-5-ylidene)methyl)benzoic acid at 37 degC; type: ADME, cell-free
IC50 [1] [nM],Drug metabolism [2],Drug metabolism [3],Structure (SMILES),Activity (Homo sapiens) [%]
,,,CCC/N=C1\S/C(=C\c2ccc(OC[C@H](O)CO)c(Cl)c2)C(=O)N1c1ccccc1C [PONESIMOD],77
> 1000,Metabolite_Notdetected,,CCC/N=C1\S/C(=C\c2ccc(C(=O)O)cc2)C(=O)N1c1ccccc1O,
> 1000,,Metabolite_Detected,CCC/N=C1\S/C(=C\c2ccc(C(=O)OCc3oc(=O)oc3C)cc2)C(=O)N1c1ccccc1O,
